The results in this text go back to ChEMBL document CHEMBL1139881, “A tetrazolyl-substituted subtype-selective AMPA receptor agonist” (J Med Chem, 2007).

The target in assay [1] is Glutamate NMDA receptor. Nature of the assay: Displacement of [3H]CGP 39653 from NMDA receptor in rat synaptosomes. The format is subcellular, Brain. (Displacement assays read how much labelled ligand stays bound in the presence of the test substance.)
The nature of assay [2]: Displacement of [3H]AMPA from AMPA receptor in rat synaptosomes. The format is subcellular, Brain.
The target of a further assay is Glutamate receptor 1 (Rattus norvegicus, UniProt P19490). Briefly: biochemical.
A further assay has as its target Glutamate receptor 3 (Rattus norvegicus, UniProt P19492). Nature of the assay: biochemical.
The nature of assay [3]: Activity at ionotropic GluR in rat cortical wedge by electrophysiology assay.
Assay [4] addresses Glutamate receptor ionotropic, kainate 1 (Rattus norvegicus, UniProt P22756). Briefly: biochemical.
Description: Displacement of [3H]SYM 2081 from rat recombinant GluR5 expressed in Sf9 cells
The target of another assay is Glutamate receptor 4 (Rattus norvegicus, UniProt P19493). Nature of the assay: biochemical.
Assay [5] is described as follows: Displacement of [3H]KA from kainate receptor in rat synaptosomes. Type of assay: subcellular, Brain.
The target of the next assay is Glutamate receptor 2 (Rattus norvegicus, UniProt P19491). Nature of the assay: biochemical.
Assay [6] concerns the target Glutamate receptor ionotropic, kainate 2 (Rattus norvegicus, UniProt P42260). Nature of the assay: Displacement of [3H]KA from rat recombinant GluR6 expressed in Sf9 cells.
For assay [7], the target named is Glutamate NMDA receptor. Nature of the assay: Displacement of [3H][…] from NMDA receptor in rat synaptosomes. The format is subcellular, Brain.
The nature of assay [8]: Agonist activity at GluR2 L483Y mutant expressed in Xenopus laevis oocytes assessed as by effect on glutamate-induced current relative to glutamate. The format is functional, Homo sapiens, Oocyte.
Assay [9] can be described thus: Agonist activity at GluR2 L483Y mutant expressed in Xenopus laevis oocytes assessed as by effect on glutamate-induced current by two-electrode voltage clamp assay. The following applies: Homo sapiens, Oocyte. The format is functional, cell-based. Background: Two-electrode voltage clamp is typically applied to oocytes expressing channels or transporters.

Molecules are shown by their SMILES.

Chain of Glutamate receptor 3 (P19492 whole entry): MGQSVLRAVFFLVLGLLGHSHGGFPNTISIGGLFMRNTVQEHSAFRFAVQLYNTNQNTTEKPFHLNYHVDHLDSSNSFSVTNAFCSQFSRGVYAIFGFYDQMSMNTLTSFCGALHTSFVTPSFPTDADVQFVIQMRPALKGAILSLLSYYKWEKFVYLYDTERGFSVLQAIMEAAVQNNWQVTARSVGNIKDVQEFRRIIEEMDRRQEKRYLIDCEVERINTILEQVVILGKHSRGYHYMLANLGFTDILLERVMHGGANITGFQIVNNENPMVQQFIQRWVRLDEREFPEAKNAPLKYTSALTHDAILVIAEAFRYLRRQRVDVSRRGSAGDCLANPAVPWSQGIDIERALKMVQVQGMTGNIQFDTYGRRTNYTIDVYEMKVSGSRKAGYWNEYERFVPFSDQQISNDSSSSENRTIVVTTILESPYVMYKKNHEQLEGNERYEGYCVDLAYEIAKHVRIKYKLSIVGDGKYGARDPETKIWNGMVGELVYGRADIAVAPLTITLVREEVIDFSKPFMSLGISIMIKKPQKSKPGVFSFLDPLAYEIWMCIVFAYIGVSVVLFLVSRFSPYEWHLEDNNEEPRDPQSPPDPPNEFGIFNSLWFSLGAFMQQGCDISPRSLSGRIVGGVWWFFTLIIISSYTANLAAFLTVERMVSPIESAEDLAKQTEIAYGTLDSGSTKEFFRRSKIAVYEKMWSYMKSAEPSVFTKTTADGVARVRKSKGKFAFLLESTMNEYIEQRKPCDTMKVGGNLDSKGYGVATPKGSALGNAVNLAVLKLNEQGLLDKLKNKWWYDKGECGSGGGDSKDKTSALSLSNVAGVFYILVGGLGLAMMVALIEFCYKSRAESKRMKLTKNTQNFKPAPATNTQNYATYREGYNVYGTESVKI
Chain of Glutamate receptor ionotropic, kainate 1 (P22756 whole entry): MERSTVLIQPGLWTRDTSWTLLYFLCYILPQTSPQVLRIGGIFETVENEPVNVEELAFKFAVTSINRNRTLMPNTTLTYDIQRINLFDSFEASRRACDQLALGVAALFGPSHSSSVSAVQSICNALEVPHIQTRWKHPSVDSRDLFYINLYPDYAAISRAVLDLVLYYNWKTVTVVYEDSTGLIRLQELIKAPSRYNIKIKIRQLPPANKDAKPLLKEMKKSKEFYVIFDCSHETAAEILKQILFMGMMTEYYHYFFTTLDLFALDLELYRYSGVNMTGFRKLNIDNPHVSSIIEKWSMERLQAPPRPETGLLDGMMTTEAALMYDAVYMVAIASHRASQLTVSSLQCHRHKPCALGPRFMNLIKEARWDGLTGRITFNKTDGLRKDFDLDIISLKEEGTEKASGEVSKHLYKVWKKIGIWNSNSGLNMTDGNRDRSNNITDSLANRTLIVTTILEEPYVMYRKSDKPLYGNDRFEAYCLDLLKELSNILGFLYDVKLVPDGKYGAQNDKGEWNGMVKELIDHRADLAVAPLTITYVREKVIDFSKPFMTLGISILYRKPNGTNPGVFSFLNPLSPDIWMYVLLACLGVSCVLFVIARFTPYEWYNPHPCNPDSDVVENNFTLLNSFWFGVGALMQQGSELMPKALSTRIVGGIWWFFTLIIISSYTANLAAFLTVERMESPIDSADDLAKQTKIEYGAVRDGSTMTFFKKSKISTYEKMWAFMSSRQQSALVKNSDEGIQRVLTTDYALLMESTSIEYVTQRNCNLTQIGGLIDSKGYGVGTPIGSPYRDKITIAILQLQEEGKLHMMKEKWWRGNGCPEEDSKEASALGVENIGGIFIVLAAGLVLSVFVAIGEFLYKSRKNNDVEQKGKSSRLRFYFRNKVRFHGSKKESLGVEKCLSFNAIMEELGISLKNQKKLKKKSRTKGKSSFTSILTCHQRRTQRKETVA
Chain of Glutamate receptor 4 (P19493 whole entry): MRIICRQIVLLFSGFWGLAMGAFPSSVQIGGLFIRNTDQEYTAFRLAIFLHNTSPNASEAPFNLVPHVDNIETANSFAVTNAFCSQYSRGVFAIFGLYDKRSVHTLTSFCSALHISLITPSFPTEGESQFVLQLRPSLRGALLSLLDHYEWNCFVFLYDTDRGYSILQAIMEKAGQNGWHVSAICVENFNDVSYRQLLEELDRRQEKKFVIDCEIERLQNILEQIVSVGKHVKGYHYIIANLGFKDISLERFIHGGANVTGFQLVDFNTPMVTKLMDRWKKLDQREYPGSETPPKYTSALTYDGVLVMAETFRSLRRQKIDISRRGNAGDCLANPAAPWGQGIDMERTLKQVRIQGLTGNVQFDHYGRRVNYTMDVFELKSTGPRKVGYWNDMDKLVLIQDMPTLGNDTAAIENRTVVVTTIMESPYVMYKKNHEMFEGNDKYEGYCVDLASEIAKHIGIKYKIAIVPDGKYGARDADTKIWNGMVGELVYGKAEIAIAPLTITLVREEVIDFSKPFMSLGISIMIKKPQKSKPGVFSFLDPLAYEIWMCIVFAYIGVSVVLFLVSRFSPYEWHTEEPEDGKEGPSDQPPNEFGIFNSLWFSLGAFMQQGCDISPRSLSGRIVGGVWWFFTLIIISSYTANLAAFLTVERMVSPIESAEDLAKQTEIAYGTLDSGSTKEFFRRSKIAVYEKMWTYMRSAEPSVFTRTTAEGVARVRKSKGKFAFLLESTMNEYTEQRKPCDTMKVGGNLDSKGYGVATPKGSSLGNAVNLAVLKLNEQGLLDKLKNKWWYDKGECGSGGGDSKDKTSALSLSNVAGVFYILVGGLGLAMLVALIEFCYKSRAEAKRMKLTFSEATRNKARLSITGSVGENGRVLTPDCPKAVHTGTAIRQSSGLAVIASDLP
Chain of Glutamate receptor 1 (P19490 whole entry): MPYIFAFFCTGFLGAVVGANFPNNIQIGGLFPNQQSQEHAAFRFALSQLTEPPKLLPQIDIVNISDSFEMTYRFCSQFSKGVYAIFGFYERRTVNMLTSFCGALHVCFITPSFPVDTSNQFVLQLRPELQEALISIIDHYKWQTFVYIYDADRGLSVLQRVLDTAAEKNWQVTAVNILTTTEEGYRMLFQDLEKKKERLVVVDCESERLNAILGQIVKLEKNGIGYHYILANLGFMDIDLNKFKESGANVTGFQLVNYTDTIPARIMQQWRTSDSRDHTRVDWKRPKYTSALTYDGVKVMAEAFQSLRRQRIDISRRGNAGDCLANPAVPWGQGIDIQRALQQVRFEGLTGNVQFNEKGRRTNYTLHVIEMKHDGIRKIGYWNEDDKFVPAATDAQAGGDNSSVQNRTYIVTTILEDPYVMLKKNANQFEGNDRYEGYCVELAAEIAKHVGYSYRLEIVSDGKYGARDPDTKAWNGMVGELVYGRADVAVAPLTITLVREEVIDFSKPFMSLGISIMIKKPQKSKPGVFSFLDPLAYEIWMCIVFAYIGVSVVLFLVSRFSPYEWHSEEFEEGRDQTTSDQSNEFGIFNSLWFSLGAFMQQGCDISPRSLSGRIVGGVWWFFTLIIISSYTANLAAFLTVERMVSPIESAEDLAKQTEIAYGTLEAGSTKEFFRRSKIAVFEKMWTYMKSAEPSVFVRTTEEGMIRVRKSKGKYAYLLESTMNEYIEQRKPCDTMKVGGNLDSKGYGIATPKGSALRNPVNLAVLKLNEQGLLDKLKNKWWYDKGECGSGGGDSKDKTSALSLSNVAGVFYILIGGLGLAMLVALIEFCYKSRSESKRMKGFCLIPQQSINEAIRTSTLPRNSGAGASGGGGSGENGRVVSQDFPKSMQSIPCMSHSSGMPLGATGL
Chain of Glutamate receptor 2 (P19491 whole entry): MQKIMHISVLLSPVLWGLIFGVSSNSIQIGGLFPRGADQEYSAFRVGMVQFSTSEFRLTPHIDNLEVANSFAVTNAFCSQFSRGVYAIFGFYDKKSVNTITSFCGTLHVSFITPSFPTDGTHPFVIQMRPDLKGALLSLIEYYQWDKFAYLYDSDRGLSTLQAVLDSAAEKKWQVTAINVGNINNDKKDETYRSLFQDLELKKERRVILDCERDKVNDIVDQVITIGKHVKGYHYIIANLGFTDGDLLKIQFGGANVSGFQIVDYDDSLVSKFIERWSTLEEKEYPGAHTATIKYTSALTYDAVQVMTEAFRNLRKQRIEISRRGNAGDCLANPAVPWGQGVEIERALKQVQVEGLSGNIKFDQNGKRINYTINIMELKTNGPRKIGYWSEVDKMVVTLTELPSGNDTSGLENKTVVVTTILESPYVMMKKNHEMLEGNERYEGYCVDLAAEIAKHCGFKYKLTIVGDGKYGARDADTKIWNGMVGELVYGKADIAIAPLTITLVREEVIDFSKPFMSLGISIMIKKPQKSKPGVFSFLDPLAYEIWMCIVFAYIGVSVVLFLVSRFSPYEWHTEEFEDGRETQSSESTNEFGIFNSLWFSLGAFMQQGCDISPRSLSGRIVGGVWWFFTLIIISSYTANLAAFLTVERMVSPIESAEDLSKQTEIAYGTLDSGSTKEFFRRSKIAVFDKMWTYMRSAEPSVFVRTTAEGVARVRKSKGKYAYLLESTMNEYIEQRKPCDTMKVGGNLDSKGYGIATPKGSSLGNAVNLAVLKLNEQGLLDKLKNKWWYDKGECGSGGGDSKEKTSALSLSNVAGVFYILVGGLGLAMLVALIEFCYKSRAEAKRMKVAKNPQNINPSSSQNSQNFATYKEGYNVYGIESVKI
Description for Glutamate receptor 1: Displacement of [3H]AMPA from rat recombinant GluR1 expressed in Sf9 cells
Description for Glutamate receptor 2: Displacement of [3H]AMPA from rat recombinant GluR2 expressed in Sf9 cells
Description for Glutamate receptor 3: Displacement of [3H]AMPA from rat recombinant GluR3 expressed in Sf9 cells
Description for Glutamate receptor 4: Displacement of [3H]AMPA from rat recombinant GluR4 expressed in Sf9 cells

Turning to `CC(C)n1nnc(-c2onc(O)c2CC(N)C(=O)O)n1` (stereo not given), the Ki (usually a dissociation constant, usually derived from enzyme kinetics or from competition with a known ligand) is more than 100 µM on Glutamate NMDA receptor [1]; 0.01 µM on Glutamate receptor 1; 3.7 µM at Glutamate receptor 3; 31 µM in assay [4]; 2.4 µM at Glutamate receptor 4; 2.9 µM at Glutamate receptor 2. Besides, in assay [6], the Ki is more than 100 µM. Further, the IC50 (in general, the concentration that inhibits the measured activity by half) in assay [2] is 6.2 µM; in assay [5], more than 100 µM. It took 71 µM to reach a half-maximal effect in assay [3] (EC50).

Take `Cn1nnc(-c2onc(O)c2C[C@H](N)C(=O)O)n1`: the Ki was more than 100 µM at Glutamate NMDA receptor [7]; 8.1e-05 µM in assay [4]; 0.0027 µM on Glutamate receptor 4; 0.0039 µM at Glutamate receptor 2; 19 µM in [6]. The figures for the IC50 in [2] and in assay [5] were 0.009 µM and 11 µM, respectively.

As for `CCn1nnc(-c2onc(O)c2CC(N)C(=O)O)n1` (stereo not given), the Ki is more than 100 µM on Glutamate NMDA receptor [1]; 0.15 µM on Glutamate receptor 1; 0.045 µM on Glutamate receptor 3; 2.9 µM in assay [4]; 0.044 µM at Glutamate receptor 4; 0.08 µM at Glutamate receptor 2. Further, in [6], the Ki was more than 100 µM. For the same compound, the IC50 in assay [2] was 0.13 µM; in assay [5], more than 100 µM. In addition, the EC50 – broadly, the concentration at which the effect is half-maximal – in assay [3] amounted to 3.5 µM.

Consider `CCCn1nnc(-c2onc(O)c2CC(N)C(=O)O)n1` (stereo not given), for which the Ki at Glutamate NMDA receptor [1] was more than 100 µM; on Glutamate receptor 1 it was 0.0052 µM; at Glutamate receptor 3, 1.2 µM; in [4], 5.5 µM; on Glutamate receptor 4, 0.73 µM; at Glutamate receptor 2, 1.6 µM. The Ki in assay [6] is more than 100 µM. The results for the IC50 in assay [2] and in [5] were 2.5 µM and more than 100 µM, respectively. Besides, a half-maximal effect in assay [3] (EC50) was put at 32 µM.

In the case of `NC(Cc1c(O)noc1-c1nnnn1Cc1ccccc1)C(=O)O` (racemic), the Ki on Glutamate NMDA receptor [1] is more than 100 µM. For the same compound, the IC50 in assay [2] and in [5] was more than 100 µM in each case.

On to `NC(Cc1c(O)noc1-c1nnn(Cc2ccccc2)n1)C(=O)O` (racemic), for which the Ki at Glutamate NMDA receptor [1] was 87 µM; in assay [4] it was 58 µM; in [6], 39 µM. Besides, the IC50 is 2.7 µM in [2] and more than 100 µM in [5]. Moreover, the half-maximal effective concentration (EC50) in [3] is 32 µM; in assay [9] it was 95 µM. For the same compound, the Activity in [8] came to 84%.

For the compound `Cc1onc(O)c1CC(N)C(=O)O` (racemic) [(R,S)-AMPA], the IC50 in assay [5] is more than 100 µM. Further, the Ki in assay [6] was more than 1000 µM.
